Test results: paper PMC8151276, “An Integrated Approach toward NanoBRET Tracers for Analysis of GPCR Ligand Engagement” (Molecules, 2021)
“And” between values parts separate entries of the source, which are not always exact repeats. Equal values may be shown once. Read-outs that look alike come from different tables or passages of the source.

Key:
Assay type in all cases: binding
ADORA3 = target: T1, ADORA3 (Homo sapiens, UniProt P0DMS8); experiment: NanoBRET screen HiBiT-ADORA3 in HEK293; details: ADORA3
T1 construct: purchased Promega (in-house HiBiT-GPCR construct library, NanoBRET)
T1 sequence (P0DMS8 1-318): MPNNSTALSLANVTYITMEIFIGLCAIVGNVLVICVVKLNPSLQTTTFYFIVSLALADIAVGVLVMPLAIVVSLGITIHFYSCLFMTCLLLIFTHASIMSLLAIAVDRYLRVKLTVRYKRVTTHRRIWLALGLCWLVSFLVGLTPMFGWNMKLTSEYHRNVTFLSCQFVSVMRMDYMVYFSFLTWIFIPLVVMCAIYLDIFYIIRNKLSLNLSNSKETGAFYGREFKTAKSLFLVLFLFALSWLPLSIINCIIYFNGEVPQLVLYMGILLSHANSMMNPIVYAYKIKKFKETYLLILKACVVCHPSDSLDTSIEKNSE
Experimental: (§1) Each tracer candidate was screened across the entire library of HiBiT-GPCR constructs using NanoBRET as the detection modality. As depicted in Figure 4A, the specificity of interactions was evaluated through decrease in BRET due to competitive displacement of a bound tracer by excess parental compound. Each tracer was analyzed for binding to each HiBiT-GPCR fusion in the absence and in the presence of competing parental compound. Briefly, HEK293 cells were transfected with HiBiT-GPCR constructs diluted into promoterless DNA to reduce expression and maximize translocation to the cell surface. Each tracer candidate was then screened at concentrations of 1 μM and 0.1 μM across cells expressing these fusions. Cells were treated for 1.5 h with tracer either alone or in the presence of 20 μM competing parental compound (i.e., control). BRET was measured upon addition of purified LgBiT and subsequent complementation with HiBiT genetically fused to a GPCR. The specificity of interactions was assessed through a decrease in BRET signal due to competitive displacement of the bound tracer. To further gauge the robustness of these interactions, the fold response over the control (i.e., BRETtracer/BRETcontrol) was calculated. We chose a 1.5-fold response, which translates to ≥7-fold signal over noise as the minimal threshold required to score an interaction as positive. […]. Below we highlight the screening results obtained for our exemplary fluorescent tracers based on Clozapine, Amitriptyline and AZD1283.
(§2) HiBiT-GPCR DNA constructs were diluted in 10 mM Tris pH 8 to a final concentration of 0.01 μg/μL, arrayed in 96-well plates and stored at −20 °C. For transfection, HEK293 cells were suspended in Opti-MEM (without phenol red) supplemented with 2% fetal bovine serum (Seradigm) and 100 units/mL penicillin–streptomycin (Gibco) at a final concentration of 220,000 cells/mL and dispensed into white 96-well plates at 90 μL/well. Subsequent transfections and screens were carried using an Agilent Bravo Automated Liquid Handling Platform. First, the 96-well HiBiT DNA arrays were diluted 25-fold in Opti-MEM (without serum or phenol red) to a final concentration of 0.0004 μg/μL and 20 μL of the diluted DNAs were transferred into new 96-well plates. Next, promoterless carrier DNA (1 μg/μL) was diluted 25-fold (0.04 μg/μL) and then dispensed into the diluted arrays at 20 μL/well. Following brief mixing, Viafect transfection reagent (Promega) diluted 16-fold into Opti-MEM was dispensed into the plates at 40 μL/well. After mixing by pipetting, plates were incubated for 10 min on the pipetting station deck. The DNA-transfection reagent complexes were then added to plates containing cells. To facilitate the screen, 10 μL of DNA-transfection reagent complexes were added in duplicates to the top 4 and bottom 4 rows, resulting in two identical 48-well arrays per plate. Plates with transfected cells were incubated for 18–20 h at 37 °C/5% CO2. A screen of each tracer across the entire library using two different concentrations requires duplicate plates of transfected cells. Depending on the number of tracers being screened, transfections can be scaled up using the same ratios. The next day, for each tracer, four 20× screening solutions in tracer dilution buffer (Promega) were prepared: two duplicates at final concentration of 20 μM and two duplicates at a final concentration of 2 μM. A competing unmodified compound was added to one of each duplicate at a final concentration of 400 μM. The four resulting solutions were diluted 4-fold in Opti-MEM without serum or phenol red to generate 5× solutions (5 µM and 0.5 µM tracer +/− 100 μM competing compound). To screen the library, a BioTek MultiFlo FX liquid dispenser was used to dispense 22.5 µL of tracer solution to the top 4 rows and 22.5 µL tracer + competing compound solution to the 4 bottom rows. Plates were briefly mixed on an orbital shaker and incubated for 1.5 h at room temperature. […]

C5AR1 = target: T2, C5AR1 (Homo sapiens, UniProt P21730); experiment: NanoBRET screen HiBiT-C5AR1 in HEK293; details: C5AR1
T2 construct: purchased Promega (in-house HiBiT-GPCR construct library, NanoBRET)
T2 sequence (P21730 1-350): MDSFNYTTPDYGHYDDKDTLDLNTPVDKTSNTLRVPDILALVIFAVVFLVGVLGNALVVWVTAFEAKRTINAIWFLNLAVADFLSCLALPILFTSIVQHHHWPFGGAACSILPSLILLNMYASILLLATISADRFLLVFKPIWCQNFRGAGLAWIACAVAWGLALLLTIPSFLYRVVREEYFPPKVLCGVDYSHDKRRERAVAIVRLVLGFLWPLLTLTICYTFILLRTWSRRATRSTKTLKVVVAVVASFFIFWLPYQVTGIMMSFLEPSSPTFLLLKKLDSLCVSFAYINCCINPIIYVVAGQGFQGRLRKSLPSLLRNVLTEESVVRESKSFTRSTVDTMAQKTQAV
Experimental: as §1, §2

CHRM3 = target: T3, CHRM3 (Homo sapiens, UniProt P20309); experiment: NanoBRET screen HiBiT-CHRM3 in HEK293
T3 construct: purchased Promega (in-house HiBiT-GPCR construct library, NanoBRET)
T3 sequence (P20309 whole entry): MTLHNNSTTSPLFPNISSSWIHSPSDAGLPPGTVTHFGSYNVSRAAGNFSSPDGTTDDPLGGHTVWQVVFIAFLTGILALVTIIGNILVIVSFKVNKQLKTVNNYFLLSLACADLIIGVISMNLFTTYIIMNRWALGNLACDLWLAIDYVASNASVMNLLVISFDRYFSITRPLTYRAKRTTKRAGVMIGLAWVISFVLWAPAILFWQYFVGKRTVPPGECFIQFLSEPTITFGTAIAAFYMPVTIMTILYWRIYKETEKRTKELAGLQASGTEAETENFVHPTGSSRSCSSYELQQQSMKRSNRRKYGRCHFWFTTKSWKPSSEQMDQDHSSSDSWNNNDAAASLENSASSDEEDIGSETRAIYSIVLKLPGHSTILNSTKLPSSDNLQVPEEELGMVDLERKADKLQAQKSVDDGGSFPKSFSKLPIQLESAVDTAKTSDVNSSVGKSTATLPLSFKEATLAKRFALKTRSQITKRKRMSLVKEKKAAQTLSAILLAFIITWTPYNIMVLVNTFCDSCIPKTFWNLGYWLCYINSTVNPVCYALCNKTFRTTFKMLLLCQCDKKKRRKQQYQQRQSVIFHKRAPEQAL

VIPR1 = target: T4, VIPR1 (Homo sapiens, UniProt P32241); experiment: NanoBRET screen HiBiT-VIPR1 in HEK293; details: VIPR1
T4 construct: purchased Promega (in-house HiBiT-GPCR construct library, NanoBRET)
T4 sequence (P32241 31-457): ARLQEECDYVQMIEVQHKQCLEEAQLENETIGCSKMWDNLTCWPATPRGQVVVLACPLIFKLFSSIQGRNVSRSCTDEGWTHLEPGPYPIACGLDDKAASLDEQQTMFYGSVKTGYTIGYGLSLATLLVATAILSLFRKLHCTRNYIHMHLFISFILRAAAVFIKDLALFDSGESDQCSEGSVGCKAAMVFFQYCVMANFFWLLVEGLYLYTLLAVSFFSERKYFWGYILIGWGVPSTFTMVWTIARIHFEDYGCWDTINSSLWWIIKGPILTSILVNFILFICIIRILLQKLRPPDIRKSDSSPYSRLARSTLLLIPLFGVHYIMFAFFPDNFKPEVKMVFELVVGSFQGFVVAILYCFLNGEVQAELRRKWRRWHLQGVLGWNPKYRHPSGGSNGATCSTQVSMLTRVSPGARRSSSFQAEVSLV
Experimental: as §1, §2

NPFFR2 = target: T5, NPFFR2 (Homo sapiens, UniProt Q9Y5X5); experiment: NanoBRET screen HiBiT-NPFFR2 in HEK293; details: NPFFR2
T5 construct: purchased Promega (in-house HiBiT-GPCR construct library, NanoBRET)
T5 sequence (Q9Y5X5 whole entry): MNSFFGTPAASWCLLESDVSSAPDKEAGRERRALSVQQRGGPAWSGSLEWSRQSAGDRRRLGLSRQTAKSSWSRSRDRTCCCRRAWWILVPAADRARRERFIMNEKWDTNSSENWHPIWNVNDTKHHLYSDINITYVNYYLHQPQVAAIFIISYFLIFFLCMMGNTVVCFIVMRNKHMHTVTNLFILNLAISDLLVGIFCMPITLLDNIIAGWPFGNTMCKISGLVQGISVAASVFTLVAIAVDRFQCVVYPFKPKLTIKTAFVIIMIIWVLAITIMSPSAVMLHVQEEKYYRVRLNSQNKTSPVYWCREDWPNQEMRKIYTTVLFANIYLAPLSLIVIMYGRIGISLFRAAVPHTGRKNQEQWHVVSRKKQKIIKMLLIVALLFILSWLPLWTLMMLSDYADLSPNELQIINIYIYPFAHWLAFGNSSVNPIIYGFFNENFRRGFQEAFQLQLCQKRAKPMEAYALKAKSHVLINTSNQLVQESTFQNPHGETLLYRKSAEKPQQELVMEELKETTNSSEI
Experimental: as §1, §2

GRM2 = target: T6, GRM2 (Homo sapiens, UniProt Q14416); experiment: NanoBRET screen HiBiT-GRM2 in HEK293; details: GRM2
T6 construct: purchased Promega (in-house HiBiT-GPCR construct library, NanoBRET)
T6 sequence (Q14416 19-872): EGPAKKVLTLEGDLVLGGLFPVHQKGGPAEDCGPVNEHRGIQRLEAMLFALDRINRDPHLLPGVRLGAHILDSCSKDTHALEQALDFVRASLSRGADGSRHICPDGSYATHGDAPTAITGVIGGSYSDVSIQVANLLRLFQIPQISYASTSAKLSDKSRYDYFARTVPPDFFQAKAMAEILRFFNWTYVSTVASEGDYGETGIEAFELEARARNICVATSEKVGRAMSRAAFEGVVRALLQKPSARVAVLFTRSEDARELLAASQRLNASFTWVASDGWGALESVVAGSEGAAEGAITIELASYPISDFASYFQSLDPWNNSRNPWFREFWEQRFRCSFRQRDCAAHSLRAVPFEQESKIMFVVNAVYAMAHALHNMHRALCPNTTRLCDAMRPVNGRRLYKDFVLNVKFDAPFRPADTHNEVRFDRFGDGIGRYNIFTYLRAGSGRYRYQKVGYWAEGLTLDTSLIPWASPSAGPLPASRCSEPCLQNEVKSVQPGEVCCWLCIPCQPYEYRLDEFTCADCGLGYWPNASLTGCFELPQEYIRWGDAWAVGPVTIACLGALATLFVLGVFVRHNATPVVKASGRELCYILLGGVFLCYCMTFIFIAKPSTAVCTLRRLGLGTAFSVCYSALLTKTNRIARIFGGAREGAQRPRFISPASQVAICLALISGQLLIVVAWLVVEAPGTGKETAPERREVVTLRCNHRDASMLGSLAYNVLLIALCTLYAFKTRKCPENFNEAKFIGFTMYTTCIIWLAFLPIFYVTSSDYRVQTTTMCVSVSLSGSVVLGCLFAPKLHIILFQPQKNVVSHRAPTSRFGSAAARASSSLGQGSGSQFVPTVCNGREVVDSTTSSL
Experimental: as §1, §2

SMILES	NanoBRET Fold Response (ADORA3; tracer 0.1μM)	NanoBRET Fold Response (ADORA3; tracer 1μM)	NanoBRET Fold Response (C5AR1; tracer 0.1μM)	NanoBRET Fold Response (C5AR1; tracer 1μM)	NanoBRET Fold Response (VIPR1; tracer 0.1μM)	NanoBRET Fold Response (VIPR1; tracer 1μM)	NanoBRET Fold Response (NPFFR2; tracer 0.1μM)	NanoBRET Fold Response (NPFFR2; tracer 1μM)	NanoBRET Fold Response (GRM2; tracer 0.1μM)	NanoBRET Fold Response (GRM2; tracer 1μM)	further results
O=C(CCOCCOCCOCCOCCNC(=O)CCc1ccc2n1[B-](F)(F)[N+]1=C(c3ccc[nH]3)C=CC1=C2)NCCCN1CCN(C2=Nc3cc(Cl)ccc3Nc3ccccc32)CC1 [Clozapine-a-2-NB590]											NanoBRET Fold Response (ADORA3; 0.1μM tracer): 1.04; NanoBRET Fold Response (ADORA3; 1μM tracer): 0.83; NanoBRET Fold Response (C5AR1; 0.1μM tracer): 1.04; NanoBRET Fold Response (C5AR1; 1μM tracer): 1.11; NanoBRET Fold Response (CHRM3; CHRM3, 0.1μM tracer): 1.06; NanoBRET Fold Response (CHRM3; CHRM3, 1μM tracer): 0.92; NanoBRET Fold Response (VIPR1; 0.1μM tracer): 0.98; NanoBRET Fold Response (VIPR1; 1μM tracer): 1.10; NanoBRET Fold Response (NPFFR2; 0.1μM tracer): 1.00; NanoBRET Fold Response (NPFFR2; 1μM tracer): 0.97; NanoBRET Fold Response (GRM2; 0.1μM tracer): 1.03; NanoBRET Fold Response (GRM2; 1μM tracer): 1.01
O=C(CCOCCOCCOCCOCCNC(=O)CCc1ccc2n1[B-](F)(F)[N+]1=C(c3ccc[nH]3)C=CC1=C2)NCCCN1CCN(C2=Nc3ccccc3Oc3ccc(Cl)cc32)CC1 [Loxapine-a-2-NB590]	1.04	0.78	1.01	0.98	0.94	1.05	1.05	1.03	1.00	1.25	NanoBRET Fold Response (CHRM3): 0.96 and 1.07
COc1ccccc1N1CCN(CCCCN2C(=O)c3ccc(CNC(=O)CCOCCOCCOCCOCCNC(=O)CCc4ccc5n4[B-](F)(F)[N+]4=C(c6ccc[nH]6)C=CC4=C5)cc3C2=O)CC1 [NAN-190-2-NB590]	0.96	0.89	1.03	1.04	1.00	1.02	0.97		0.26	1.00	NanoBRET Fold Response (CHRM3; CHRM3, tracer 1μM): 0.99
Cc1nc2n(c(=O)c1CCN1CCC(c3noc4cc(F)ccc34)CC1)CCCC2OC(=O)NCCOCCOCCOCCOCCNC(=O)CCc1ccc2n1[B-](F)(F)[N+]1=C(c3ccc[nH]3)C=CC1=C2 (stereo not shown) [Risperidone-2-NB590]	1.03	0.87	0.95	0.99	0.98	1.10	1.02	0.98	0.96	1.04	
